Tests used:
Assay in all cases: biochemical
Assay type in all cases: biochemical
[1] = molecular target: 363 human kinases (including Aurora A/B/C) (Homo sapiens, UniProt O43293); conditions: ZIPK/DAPK3; for remaining activity at 0.1 µM: 100 nM; for remaining activity at 0.1 µM / remaining activity at 0.5 µM: read-out: % Enzyme Activity (relative to DMSO controls)
From the text: (§1) However, the Aurora A/B selectivity ratios derived from our in vitro and in vivo data can be compared to prioritize inhibitors.

[2] = molecular target: T1, 363 human kinases (including Aurora A/B/C) (Homo sapiens, UniProt Q8NG66); conditions: NEK11; for remaining activity at 0.1 µM: 100 nM; for remaining activity at 0.1 µM / remaining activity at 0.5 µM: read-out: % Enzyme Activity (relative to DMSO controls)
T1 sequence (Q8NG66 1-645): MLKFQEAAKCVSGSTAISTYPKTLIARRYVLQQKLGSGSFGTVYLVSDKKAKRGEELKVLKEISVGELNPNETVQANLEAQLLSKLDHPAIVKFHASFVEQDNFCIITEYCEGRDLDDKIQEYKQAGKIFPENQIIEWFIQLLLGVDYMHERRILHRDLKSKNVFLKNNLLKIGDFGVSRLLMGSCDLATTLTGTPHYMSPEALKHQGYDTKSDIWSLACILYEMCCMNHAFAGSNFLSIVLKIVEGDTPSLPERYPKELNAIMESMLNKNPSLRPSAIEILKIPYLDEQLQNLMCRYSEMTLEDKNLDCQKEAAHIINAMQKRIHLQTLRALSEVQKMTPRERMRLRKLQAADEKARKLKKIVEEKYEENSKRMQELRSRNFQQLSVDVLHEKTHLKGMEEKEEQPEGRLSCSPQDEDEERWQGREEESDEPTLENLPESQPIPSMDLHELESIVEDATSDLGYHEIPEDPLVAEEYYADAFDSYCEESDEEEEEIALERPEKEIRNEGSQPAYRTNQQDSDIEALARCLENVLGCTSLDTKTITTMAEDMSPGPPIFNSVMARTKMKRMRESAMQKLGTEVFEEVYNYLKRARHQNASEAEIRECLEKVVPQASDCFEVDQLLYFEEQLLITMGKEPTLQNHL
From the text: as §1

[3] = molecular target: T2, 363 human kinases (including Aurora A/B/C) (Homo sapiens, UniProt Q9UPZ9); conditions: LCK2/ICK; for remaining activity at 0.1 µM: 100 nM; for remaining activity at 0.1 µM / remaining activity at 0.5 µM: read-out: % Enzyme Activity (relative to DMSO controls)
T2 sequence (Q9UPZ9 1-632): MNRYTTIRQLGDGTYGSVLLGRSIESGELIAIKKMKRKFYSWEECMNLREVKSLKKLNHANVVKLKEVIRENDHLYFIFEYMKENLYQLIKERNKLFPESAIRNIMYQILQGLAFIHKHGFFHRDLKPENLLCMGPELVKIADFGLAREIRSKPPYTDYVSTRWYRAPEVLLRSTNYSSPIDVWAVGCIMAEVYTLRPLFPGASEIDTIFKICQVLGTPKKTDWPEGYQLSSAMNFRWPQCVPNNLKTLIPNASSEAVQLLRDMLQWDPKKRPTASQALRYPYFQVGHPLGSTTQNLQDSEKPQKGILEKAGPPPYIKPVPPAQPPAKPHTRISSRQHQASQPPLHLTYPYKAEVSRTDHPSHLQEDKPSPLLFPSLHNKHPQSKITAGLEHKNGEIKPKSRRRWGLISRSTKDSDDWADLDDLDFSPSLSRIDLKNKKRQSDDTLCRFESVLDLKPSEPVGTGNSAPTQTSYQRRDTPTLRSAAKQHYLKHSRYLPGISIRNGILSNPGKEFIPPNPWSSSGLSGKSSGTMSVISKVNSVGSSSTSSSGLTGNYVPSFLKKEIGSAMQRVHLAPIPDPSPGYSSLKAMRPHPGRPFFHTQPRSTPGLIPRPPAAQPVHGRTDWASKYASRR
From the text: as §1

[4] = molecular target: 363 human kinases (including Aurora A/B/C) (Homo sapiens, UniProt Q8IU85); conditions: CAMK1d, [ATP] 2.5 µM; for remaining activity at 0.1 µM: 100 nM; for remaining activity at 0.1 µM / remaining activity at 0.5 µM: read-out: % Enzyme Activity (relative to DMSO controls)
Chain of 363 human kinases (including Aurora A/B/C) (Homo sapiens, UniProt Q8IU85) (Q8IU85 whole entry): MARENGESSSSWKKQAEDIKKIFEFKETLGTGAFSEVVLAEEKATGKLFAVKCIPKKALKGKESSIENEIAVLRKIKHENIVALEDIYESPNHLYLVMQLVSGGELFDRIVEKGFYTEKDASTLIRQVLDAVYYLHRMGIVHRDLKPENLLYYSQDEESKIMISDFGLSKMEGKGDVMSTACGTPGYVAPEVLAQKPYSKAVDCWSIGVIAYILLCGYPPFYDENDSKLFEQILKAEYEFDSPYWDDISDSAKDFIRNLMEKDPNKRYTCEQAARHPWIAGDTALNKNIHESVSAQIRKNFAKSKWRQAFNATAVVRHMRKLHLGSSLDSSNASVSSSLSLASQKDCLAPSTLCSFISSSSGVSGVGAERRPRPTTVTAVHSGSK
From the text: as §1

[5] = molecular target: 363 human kinases (including Aurora A/B/C) (Homo sapiens, UniProt Q16644); conditions: MAPKAPK3; for remaining activity at 0.1 µM: 100 nM; for remaining activity at 0.1 µM / remaining activity at 0.5 µM: read-out: % Enzyme Activity (relative to DMSO controls)
Chain of 363 human kinases (including Aurora A/B/C) (Homo sapiens, UniProt Q16644) (Q16644 whole entry): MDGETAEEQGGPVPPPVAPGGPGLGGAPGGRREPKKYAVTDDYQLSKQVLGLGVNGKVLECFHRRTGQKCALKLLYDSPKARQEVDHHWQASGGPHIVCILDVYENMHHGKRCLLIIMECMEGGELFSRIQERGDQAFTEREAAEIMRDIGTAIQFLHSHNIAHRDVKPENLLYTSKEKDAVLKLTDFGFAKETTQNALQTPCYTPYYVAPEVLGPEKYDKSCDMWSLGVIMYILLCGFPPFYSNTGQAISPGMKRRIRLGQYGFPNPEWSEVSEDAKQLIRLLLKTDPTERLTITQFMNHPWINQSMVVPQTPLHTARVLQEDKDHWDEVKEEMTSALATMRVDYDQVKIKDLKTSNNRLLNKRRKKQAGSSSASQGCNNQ
From the text: as §1

[6] = molecular target: T3, 363 human kinases (including Aurora A/B/C) (Homo sapiens, UniProt Q92630); conditions: DYRK2, [ATP] 5 µM; for remaining activity at 0.1 µM: 100 nM; for remaining activity at 0.1 µM / remaining activity at 0.5 µM: read-out: % Enzyme Activity (relative to DMSO controls)
T3 sequence (Q92630 1-601): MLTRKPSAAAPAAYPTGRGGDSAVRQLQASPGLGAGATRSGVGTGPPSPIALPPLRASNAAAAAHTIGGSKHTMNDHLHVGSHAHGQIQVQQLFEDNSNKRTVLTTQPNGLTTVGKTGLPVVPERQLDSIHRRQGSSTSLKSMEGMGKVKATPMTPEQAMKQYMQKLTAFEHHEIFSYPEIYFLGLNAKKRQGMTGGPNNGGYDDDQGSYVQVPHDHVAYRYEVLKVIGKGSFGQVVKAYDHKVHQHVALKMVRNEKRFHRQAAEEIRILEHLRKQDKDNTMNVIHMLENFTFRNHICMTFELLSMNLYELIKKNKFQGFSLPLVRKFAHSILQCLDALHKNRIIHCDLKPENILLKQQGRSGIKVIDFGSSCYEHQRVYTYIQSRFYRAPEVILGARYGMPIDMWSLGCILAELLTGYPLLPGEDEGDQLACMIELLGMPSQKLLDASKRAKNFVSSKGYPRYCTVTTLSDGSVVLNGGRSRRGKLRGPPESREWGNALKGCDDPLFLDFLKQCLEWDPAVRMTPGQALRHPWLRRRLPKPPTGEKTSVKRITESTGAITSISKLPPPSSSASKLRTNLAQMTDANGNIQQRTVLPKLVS
From the text: as §1

[7] = molecular target: 363 human kinases (including Aurora A/B/C) (Homo sapiens, UniProt P05129); conditions: PKCg; for remaining activity at 0.1 µM: 100 nM; for remaining activity at 0.1 µM / remaining activity at 0.5 µM: read-out: % Enzyme Activity (relative to DMSO controls)
From the text: as §1

Chain of 363 human kinases (including Aurora A/B/C) (Homo sapiens, UniProt O43293) (O43293 whole entry): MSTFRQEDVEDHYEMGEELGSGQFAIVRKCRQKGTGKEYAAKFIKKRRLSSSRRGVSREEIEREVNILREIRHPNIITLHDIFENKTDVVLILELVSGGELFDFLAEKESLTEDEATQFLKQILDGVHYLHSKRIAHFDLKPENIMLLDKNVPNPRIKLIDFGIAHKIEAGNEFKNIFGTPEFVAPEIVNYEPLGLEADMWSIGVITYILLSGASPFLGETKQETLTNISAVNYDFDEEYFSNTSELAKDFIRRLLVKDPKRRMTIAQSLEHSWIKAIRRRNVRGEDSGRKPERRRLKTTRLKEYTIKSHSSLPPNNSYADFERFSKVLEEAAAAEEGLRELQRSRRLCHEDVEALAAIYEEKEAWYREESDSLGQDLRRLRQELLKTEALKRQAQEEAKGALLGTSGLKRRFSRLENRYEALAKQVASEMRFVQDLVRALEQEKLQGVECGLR

## O=C(O)[C@]1(Cc2cccc(Nc3nccs3)n2)CC[C@@H](Oc2cccc(Cl)c2F)CC1 [MK-5108]
[1]
  remaining activity at 0.1 µM: 97.8%
[1]; 500 nM
  remaining activity at 0.5 µM: 92.6%
[2]
  remaining activity at 0.1 µM: 86.5%
[2]; 500 nM
  remaining activity at 0.5 µM: 73.9%
[3]
  remaining activity at 0.1 µM: 99%
[3]; 500 nM
  remaining activity at 0.5 µM: 92.3%
[4]
  remaining activity at 0.1 µM: 94.4%
[4]; 500 nM
  remaining activity at 0.5 µM: 114%
[5]
  remaining activity at 0.1 µM: 99.7%
[5]; 500 nM
  remaining activity at 0.5 µM: 84.9%
[6]
  remaining activity at 0.1 µM: 82%
[6]; 500 nM
  remaining activity at 0.5 µM: 56.2%
[7]
  remaining activity at 0.1 µM: 93.7%
[7]; 500 nM
  remaining activity at 0.5 µM: 63%

## O=C(c1cccc(Cl)c1F)N1CCN(Cc2cccc(Nc3nccs3)n2)CC1 [MK-8745]
[1]; 500 nM
  % Enzyme Activity (relative to DMSO controls): 93.58%
  remaining activity at 0.5 µM: 95.5%
[2]; 500 nM
  % Enzyme Activity (relative to DMSO controls): 75.49%
  remaining activity at 0.5 µM: 76.6%
[3]; 500 nM
  % Enzyme Activity (relative to DMSO controls): 91.96%
  remaining activity at 0.5 µM: 93%
[4]; 500 nM
  % Enzyme Activity (relative to DMSO controls): 112.12%
  remaining activity at 0.5 µM: 114%
[5]; 500 nM
  % Enzyme Activity (relative to DMSO controls): 87.18%
  remaining activity at 0.5 µM: 88.7%
[6]; 500 nM
  % Enzyme Activity (relative to DMSO controls): 138.31%
  remaining activity at 0.5 µM: 147%
[7]; 500 nM
  % Enzyme Activity (relative to DMSO controls): 90.37%
  remaining activity at 0.5 µM: 91.9%

## CCn1cc(-c2ccnc3[nH]c(-c4cccc(CN(C)C)c4)cc23)c(-c2ccc(NC(=O)N(C)C)cc2)n1 [GSK1070916]
[1]
  remaining activity at 0.1 µM: 91.4%
[2]
  remaining activity at 0.1 µM: 77.7%
[3]
  remaining activity at 0.1 µM: 97.6%
[4]
  remaining activity at 0.1 µM: 111%
[5]
  remaining activity at 0.1 µM: 93.8%
[6]
  remaining activity at 0.1 µM: 108%
[7]
  remaining activity at 0.1 µM: 82.3%

Source: paper PMC4685510, “A Cell Biologist’s Field Guide to Aurora Kinase Inhibitors” (Frontiers in Oncology, 2015)
